Measurements as given in patent publication US20070128217A1 (priority 2003, published 2007).

Tests used:
[1] = tested on: antibodies in sera from SARS patients (sera 1a, 1b, 2, 6, 37, 62, London, SARS-yellow, SARS-green); assay type: binding, human; parameters: Binding of serum 6 to linear peptides of protein X1 of SARS-CoV Urbani / Binding of serum 37 to linear peptides of protein X1 of SARS-CoV Urbani / Binding of serum 6 to looped/cyclic peptide (PEPSCAN-ELISA) / Binding of serum 37 to looped/cyclic peptide (PEPSCAN-ELISA) / Binding of serum 37 to looped/cyclic peptides of protein X1 of SARS-CoV Urbani / Binding of serum 6 to linear peptides of protein X2 / Binding of serum 37 to linear peptides of protein X2 / Binding of serum 37 to looped/cyclic peptides of protein X2 of SARS-CoV Urbani / Binding of serum 6 to linear peptides of protein M of SARS-CoV Urbani / Binding of serum 37 to linear peptides of protein M of SARS-CoV Urbani / Binding of serum 6 to looped/cyclic peptides of protein M of SARS-CoV Urbani / Binding of serum 37 to looped/cyclic peptides of protein M of SARS-CoV Urbani / Binding of serum 6 to linear peptides of protein X3 of SARS-CoV Urbani / Binding of serum 37 to linear peptides of protein X3 of SARS-CoV Urbani / Binding of serum 37 to looped/cyclic peptides of protein X3 of SARS-CoV Urbani / Binding of serum 6 to linear peptides of protein X4 of SARS-CoV Urbani / Binding of serum 37 to linear peptides of protein X4 of SARS-CoV Urbani / Binding of serum 37 to looped/cyclic peptides of protein X4 of SARS-CoV Urbani / Binding of serum 6 to linear peptides of protein X5 of SARS-CoV Urbani / Binding of serum 37 to linear peptides of protein X5 of SARS-CoV Urbani / Binding of serum 37 to looped/cyclic peptides of protein X5 of SARS-CoV Urbani / Binding of serum 6 to linear peptides of protein N of SARS-CoV Urbani / Binding of serum 37 to linear peptides of protein N of SARS-CoV Urbani / Binding of serum 6 to linear peptide (PEPSCAN-ELISA) / Binding of serum 1a to looped/cyclic peptides of protein N of SARS-CoV Urbani / Binding of serum 1b to looped/cyclic peptides of protein N of SARS-CoV Urbani / Binding of serum 2 to looped/cyclic peptides of protein N of SARS-CoV Urbani / Binding of serum 6 to looped/cyclic peptides of protein N of SARS-CoV Urbani / Binding of serum 37 to looped/cyclic peptides of protein N of SARS-CoV Urbani / Binding of serum 62 to looped/cyclic peptides of protein N of SARS-CoV Urbani / Binding of serum London to looped/cyclic peptides of protein N of SARS-CoV Urbani / Binding of serum SARS-green to looped/cyclic peptides of protein N of SARS-CoV Urbani: unit not given here
[2] = tested on: control sera (pooled serum of ten healthy LUMC hospital workers; commercial negative donor pooled serum from the Dutch bloodbank); assay type: binding, human; parameters: Binding of Control serum LUMC to linear peptides / Binding of Control serum Blood-bank to linear peptides / Binding of Control serum LUMC to looped peptides / Binding of Control Serum Blood-Bank to Looped peptides / Binding of Control serum LUMC to linear peptides of the protein M of SARS-CoV Urbani / Binding of Control serum Blood-bank to linear peptides of the protein M of SARS-CoV Urbani / Binding of Control serum LUMC to looped peptides of the protein M of SARS-CoV Urbani / Binding of Control Serum Blood-Bank to Looped peptides of the protein M of SARS-CoV Urbani: unit not given here
[3] = tested on: rabbit serum obtained by immunizing a rabbit with the SARS-CoV strain Frankfurt 1; assay type: binding; parameters: Binding of a rabbit serum to linear peptides / Binding of a rabbit serum to looped peptides / Rabbit serum linear peptides / Rabbit serum looped peptides / Binding of a rabbit serum to linear peptides of protein N of SARS-CoV Urbani (Rabbit serum linear peptides) / Binding of a rabbit serum to looped/cyclic peptides of protein N of SARS-CoV Urbani (Rabbit serum looped peptides): unit not given here
[4] = tested on: recombinant human anti-SARS-CoV antibody 03-018; assay type: binding; parameters: Binding of antibody 03-018 to linear peptides of the N protein of SARS-CoV Urbani / Binding of antibody 03-018 to looped/cyclic peptides of the N protein of SARS-CoV Urbani: unit not given here

| Sequence | Binding of serum 1a to linear peptide (PEPSCAN-ELISA) [1] | Binding of serum 1a to looped/cyclic peptides of protein N of SARS-CoV Urbani [1] | Binding of serum 1b to linear peptide (PEPSCAN-ELISA) [1] | Binding of serum 1b to looped/cyclic peptides of protein N of SARS-CoV Urbani [1] | Binding of serum 2 to linear peptide (PEPSCAN-ELISA) [1] | Binding of serum 2 to looped/cyclic peptides of protein N of SARS-CoV Urbani [1] | Binding of serum 6 to linear peptide (PEPSCAN-ELISA) [1] | Binding of serum 6 to looped/cyclic peptides of protein N of SARS-CoV Urbani [1] | Binding of serum 37 to linear peptide (PEPSCAN-ELISA) [1] | Binding of serum 37 to looped/cyclic peptides of protein N of SARS-CoV Urbani [1] | Binding of serum 62 to linear peptide (PEPSCAN-ELISA) [1] | Binding of serum 62 to looped/cyclic peptides of protein N of SARS-CoV Urbani [1] | Binding of serum London to linear peptide (PEPSCAN-ELISA) [1] | Binding of serum London to looped/cyclic peptides of protein N of SARS-CoV Urbani [1] | Binding of serum SARS-green to looped/cyclic peptides of protein N of SARS-CoV Urbani [1] | Binding of serum SARS-yellow to looped/cyclic peptides of protein N of SARS-CoV Urbani [1] | Binding of a rabbit serum to linear peptides of protein N of SARS-CoV Urbani (Rabbit serum linear peptides) [3] | Binding of a rabbit serum to looped/cyclic peptides of protein N of SARS-CoV Urbani (Rabbit serum looped peptides) [3] | Binding of antibody 03-018 to linear peptides of the N protein of SARS-CoV Urbani [4] | Binding of antibody 03-018 to looped/cyclic peptides of the N protein of SARS-CoV Urbani [4] | also measured |
| --- | --- | --- | --- | --- | --- | --- | --- | --- | --- | --- | --- | --- | --- | --- | --- | --- | --- | --- | --- | --- | --- |
| SRGNSPARMASGGGE | 0.3 | 0.2 | 0.2 | 0.1 | 0.1 | 0.2 | 0.2 | 0.1 | 0.6 | 0.4 | 0.6 | 0.3 | 0.6 | 0.3 | 0.2 | 0.1 | 0.1 | 0.2 | 0.1 | 0.2 | Binding of serum SARS-green to linear peptide (PEPSCAN-ELISA) [1]: 0.2; Binding of serum SARS-yellow to linear peptide (PEPSCAN-ELISA) [1]: 0.6; Binding of Control Serum Blood-Bank to Looped peptides [2]: 0.5; Binding of Control serum Blood-bank to linear peptides [2]: 0.8; Binding of Control serum LUMC to linear peptides [2]: 0.8; Binding of Control serum LUMC to looped peptides [2]: 0.4 |
| SRGNSRNSTPGSSRG | 0.7 | 0.6 | 0.4 | 0.4 | 0.2 | 0.2 | 0.2 | 0.2 | 0.7 | 0.4 | 0.7 | 0.3 | 0.5 | 0.3 | 0.1 | 0.2 | 0.2 | 0.2 | 0.1 | 0.2 | Binding of serum SARS-green to linear peptide (PEPSCAN-ELISA) [1]: 0.4; Binding of serum SARS-yellow to linear peptide (PEPSCAN-ELISA) [1]: 0.7; Binding of Control Serum Blood-Bank to Looped peptides [2]: 0.4; Binding of Control serum Blood-bank to linear peptides [2]: 0.9; Binding of Control serum LUMC to linear peptides [2]: 0.8; Binding of Control serum LUMC to looped peptides [2]: 0.4 |
| SRNSTPGSSRGNSPA | 0.7 | 0.6 | 0.5 | 0.6 | 0.4 | 0.4 | 0.2 | 0.4 | 0.8 | 0.5 | 0.9 | 0.5 | 0.6 | 0.4 | 0.3 | 0.4 | 0.1 | 0.6 | 0.1 | 0.2 | Binding of serum SARS-green to linear peptide (PEPSCAN-ELISA) [1]: 0.4; Binding of serum SARS-yellow to linear peptide (PEPSCAN-ELISA) [1]: 0.7; Binding of Control Serum Blood-Bank to Looped peptides [2]: 0.7; Binding of Control serum Blood-bank to linear peptides [2]: 0.9; Binding of Control serum LUMC to linear peptides [2]: 0.9; Binding of Control serum LUMC to looped peptides [2]: 0.7 |
| SRQLQNSMSGASADS | – | 0.2 | – | 0.1 | – | 0.3 | – | 0.1 | – | 0.4 | – | 0.3 | – | 0.2 | 0.3 | 0.2 | 0.5 | 0.6 | 0.1 | 0.2 | Binding of serum 1a to linear peptides of protein N of SARS-CoV Urbani [1]: 0.2; Binding of serum 1b to linear peptides of protein N of SARS-CoV Urbani [1]: 0.1; Binding of serum 2 to linear peptides of protein N of SARS-CoV Urbani [1]: 0.2; Binding of serum 6 to linear peptides of protein N of SARS-CoV Urbani [1]: 0.2; Binding of serum 37 to linear peptides of protein N of SARS-CoV Urbani [1]: 0.8; Binding of serum 62 to linear peptides of protein N of SARS-CoV Urbani [1]: 0.6; Binding of serum London to linear peptides of protein N of SARS-CoV Urbani [1]: 0.6; Binding of serum SARS-green to linear peptides of protein N of SARS-CoV Urbani [1]: 0.5; Binding of serum SARS-yellow to linear peptides of protein N of SARS-CoV Urbani [1]: 0.5; Control Serum Blood-Bank Looped peptides [2]: 0.5; Control serum Blood-bank linear peptides [2]: 0.8; Control serum LUMC linear peptides [2]: 0.7; Control serum LUMC looped peptides [2]: 0.3 |
